According to the NIST ThermoML archive (doi:10.1021/acs.jced.7b00107):
± gives the expanded uncertainty stated by the source.

Test: Molar enthalpy of transition or fusion
Conditions: Adiabatic calorimetry

Molar enthalpy of transition or fusion (Crystal 2): 0.0366 ± 0.000717 kcal/mol
Molar enthalpy of transition or fusion (Crystal 3): 0.0108 ± 0.000717 kcal/mol
Compound: Cl.NC12CC3CC(CC(C3)C1)C2 [1-aminoadamantane hydrochloride]
